# Test results: patent US9278915B2, “Agonists of GPR40” (CONNEXIOS LIFE SCIENCES PVT LTD, priority 2010, dated 2016)
# Target: T1, hGPR40 (Homo sapiens, UniProt O14842)
# T1 construct: expressed in transfected cells
# Test: Calcium flux assay to detect GPR40 activation
# Format: cell-based
# Settings: CHO-K cells stably expressing hGPR40; Fluo-4 NW; read for 4 min at 5 s intervals
# Procedure: Biological Activity Calium Flux Assay to Detect GPR40 Activation: CHO-K cells stably expressing hGPR40 were selected in a media containing Neomycin/G418. The cells were plated at a concentration of 20,000 cells per well in black 96-well clear bottom tissue culture treated plates. The cells were cultured for 24 h at 37° C. in a humidified 5% CO2 air environment to allow for protein expression. The next day, after removal of media from wells, Fluo-4 NW (Invitrogen) is added at 100 ul/well and the cells were incubated for 30 min at 37° C. and for a further 30 min at RT. All test compounds were diluted to appropriate concentrations in HEPES buffer. Compounds were added to the cells and the wells were read in the BioTEK synergy reader and readings were taken for 4 min with an interval of 5 s.
# T1 sequence (O14842 whole entry): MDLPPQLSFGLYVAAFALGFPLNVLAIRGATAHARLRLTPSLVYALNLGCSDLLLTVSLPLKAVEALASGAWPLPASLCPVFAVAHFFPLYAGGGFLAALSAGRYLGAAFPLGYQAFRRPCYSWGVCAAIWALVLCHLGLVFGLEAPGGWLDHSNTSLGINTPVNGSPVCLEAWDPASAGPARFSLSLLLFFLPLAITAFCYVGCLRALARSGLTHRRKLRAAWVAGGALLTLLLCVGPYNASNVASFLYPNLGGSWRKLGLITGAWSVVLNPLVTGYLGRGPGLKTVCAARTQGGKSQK
row,SMILES,EC50 [µM]
1,"CON=C(COc1ccc(CNc2ccc([C@@H]3C[C@H]3C(=O)O)cc2)cc1)c1ccccc1 (mixture of isomers) [Compound 14, (1R,2R)-2-{4-[(4-{[(2E,2Z)-2-(Methoxyimino)-2-phenylethyl]oxy}benzyl)amino]phenyl}cyclopropanecarboxylic acid]",0.01 to 0.1
2,"CON=C(COc1ccc(CNc2ccc(C3CC3C(=O)O)cc2)cc1)c1ccccc1 (mixture of isomers) [Compound 48, Sodium 2-{4-[(4-{[(2E,2Z)-2-(methoxyimino)-2-phenylethyl]oxy}benzyl)amino]phenyl}cyclopropanecarboxylate]",0.01 to 0.1
3,"CON=C(COc1ccc(COc2ccc(C(C#N)CC(=O)O)cc2)cc1)c1ccc(C#N)cc1 (mixture of isomers) [Compound 49, Sodium 3-cyano-3-{4-[(4-{[(2E,2Z)-2-(4-cyanophenyl)-2-(methoxyimino)ethyl]oxy}benzyl)oxy]phenyl}propanoate]",< 0.01
4,"CON=C(COc1ccc(COc2ccc(C(C)(C)CC(=O)O)cc2)cc1)c1ccccc1 (mixture of isomers) [Compound 61, 3-{4-[(4-{[(2E,2Z)-2-(Methoxyimino)-2-phenylethyl]oxy}benzyl)oxy]phenyl}-3-methylbutanoic acid]",> 0.1
5,"CON=C(COc1ccc(COc2ccc(CCC(=O)O)c(OCC(=O)O)c2)cc1)c1ccccc1 (mixture of isomers) [Compound 89, 3-{2-(Carboxymethoxy)-4-[(4-{[(2E,2Z)-2-(methoxyimino)-2-phenylethyl]oxy}benzyl)oxy]phenyl}propanoic acid]",> 0.1
6,"C=CCO/N=C(/CC(=O)O)c1ccc(OCc2ccc(OCC(=NOC)c3ccccc3)cc2)cc1 (mixture of isomers) [Compound 121, (3Z)-3-{4-[(4-{[(2E,2Z)-2-(Methoxyimino)-2-phenylethyl]oxy}benzyl)oxy]phenyl}-3-[(prop-2-en-1-yloxy)imino]propanoic acid]",> 0.1
7,"CO/N=C(/c1ccccc1)c1cccc(CNc2ccc(C3CC3C(=O)O)cc2)c1 (racemic) [Compound 13, (1R,2R)-2-[4-({3-[(E,Z)-(Methoxyimino)(phenyl)methyl]benzyl}amino)phenyl]cyclopropanecarboxylic acid]",0.01 to 0.1
8,"CO/N=C(/COc1ccc(COc2ccc(C(C#N)CC(=O)O)cc2)cc1F)c1ccccc1 (racemic) [Compound 21, 3-Cyano-3-{4-[(3-fluoro-4-{[(2E,2Z)-2-(methoxyimino)-2-phenylethyl]oxy}benzyl)oxy]phenyl}propanoic acid]",0.01 to 0.1
9,"CO/N=C(/COc1ccc(COc2ccc(C(C#N)CC(=O)O)cc2)cc1)c1ccc(F)cc1 (racemic) [Compound 22, 3-Cyano-3-{4-[(4-{[(2E,2Z)-2-(4-fluorophenyl)-2-(methoxyimino)ethyl]oxy}benzyl)oxy]phenyl}propanoic acid]",< 0.01
10,"CO/N=C(/COc1ccc(COc2ccc(C(C#N)CC(=O)O)cc2)c(F)c1)c1ccccc1 (racemic) [Compound 23, 3-Cyano-3-{4-[(2-fluoro-4-{[(2E,2Z)-2-(methoxyimino)-2-phenylethyl]oxy}benzyl)oxy]phenyl}propanoic acid]",< 0.01
11,"CO/N=C(/COc1ccc(COc2ccc(C(CC(=O)O)c3ccon3)cc2)cc1)c1cccc(C)c1 (racemic) [Compound 24, 3-{4-[(4-{[(2E,2Z)-2-(Methoxyimino)-2-(3-methylphenyl)ethyl]oxy}benzyl)oxy]phenyl}-3-(1,2-oxazol-3-yl)propanoic acid]",0.01 to 0.1
12,"CO/N=C(/COc1ccc(COc2ccc(C(C#N)CC(=O)O)cc2)cc1)c1ccc(OC)cc1 (racemic) [Compound 25, 3-Cyano-3-{4-[(4-{[(2E,2Z)-2-(methoxyimino)-2-(4-methoxyphenyl)ethyl]oxy}benzyl)oxy]phenyl}propanoic acid]",< 0.01
13,"CO/N=C(/COc1ccc(COc2ccc(C(C#N)CC(=O)O)cc2)cc1)c1cccc(C)c1 (racemic) [Compound 27, 3-Cyano-3-{4-[(4-{[(2E,2Z)-2-(methoxyimino)-2-(3-methylphenyl)ethyl]oxy}benzyl)oxy]phenyl}propanoic acid]",0.01 to 0.1
14,"CO/N=C(/COc1ccc(COc2ccc(CCC(=O)O)cc2)cc1)c1ccc(C#N)cc1 (racemic) [Compound 28, 3-{4-[(4-{[(2E,2Z)-2-(4-Cyanophenyl)-2-(methoxyimino)ethyl]oxy}benzyl)oxy]phenyl}propanoic acid]",0.01 to 0.1
15,"CO/N=C(/COc1ccc(COc2ccc(C(C#N)CC(=O)O)cc2)cc1)c1ccc(C#N)cc1 (racemic) [Compound 33, 3-Cyano-3-{4-[(4-{[(2E,2Z)-2-(4-cyanophenyl)-2-(methoxyimino)ethyl]oxy}benzyl)oxy]phenyl}propanoic acid]",< 0.01
16,"CO/N=C(/COc1ccc(COc2ccc(C(C#N)CC(=O)O)cc2)cc1)c1ccccc1 (racemic) [Compound 98, 3-Cyano-3-{4-[(4-{[(2E)-2-(methoxyimino)-2-phenylethyl]oxy}benzyl)oxy]phenyl}propanoic acid]",0.01 to 0.1
17,"CO/N=C(\COc1ccc(COc2ccc(C3CC3C(=O)O)cc2)cc1)c1ccc(C#N)cc1 (single isomer, unassigned) [Compound 79, Sodium 2-{4-[(4-{[(2Z)-2-(4-cyanophenyl)-2-(methoxyimino)ethyl]oxy}benzyl)oxy]phenyl}cyclopropanecarboxylate]",> 0.1

row,SMILES,EC50 [µM]
1,"CO/N=C(\COc1ccc(COc2ccc(C3CC3C(=O)O)cc2)cc1)c1ccc(C#N)cc1 (single isomer, unassigned) [Compound 80, Sodium 2-{4-[(4-{[(2Z)-2-(4-cyanophenyl)-2-(methoxyimino)ethyl]oxy}benzyl)oxy]phenyl}cyclopropanecarboxylate]",< 0.01
2,"CO/N=C(/COc1ccc(COc2ccc(C(C#N)CC(=O)O)cc2)cc1)c1ccccc1 (single isomer, unassigned) [Compound 99, 3-Cyano-3-{4-[(4-{[(2E)-2-(methoxyimino)-2-phenylethyl]oxy}benzyl)oxy]phenyl}propanoic acid]",0.01 to 0.1
3,"CO/N=C(/COc1ccc(COc2ccc(C(C#N)CC(=O)O)cc2)cc1)c1ccccc1 (single isomer, unassigned) [Compound 100, 3-Cyano-3-{4-[(4-{[(2E)-2-(methoxyimino)-2-phenylethyl]oxy}benzyl)oxy]phenyl}propanoic acid]",0.01 to 0.1
4,"CO/N=C(\COc1ccc(COc2ccc(C(C#N)CC(=O)O)cc2)cc1)c1ccccc1 (single isomer, unassigned; (+)) [Compound 74, (+)-3-Cyano-3-{4-[(4-{[(2Z)-2-(methoxyimino)-2-phenylethyl]oxy}benzyl)oxy]phenyl}propanoic acid]",> 0.1
5,"CO/N=C(\COc1ccc(COc2ccc(C(C#N)CC(=O)O)cc2)cc1)c1ccccc1 (single isomer, unassigned; (+)) [Compound 81, (+)-Sodium 3-cyano-3-{4-[(4-{[(2Z)-2-(methoxyimino)-2-phenylethyl]oxy}benzyl)oxy]phenyl}propanoate]",0.01 to 0.1
6,"CO/N=C(\COc1ccc(COc2ccc(C(C#N)CC(=O)O)cc2)cc1)c1ccccc1 (single isomer, unassigned; (-)) [Compound 75, (−)-3-Cyano-3-{4-[(4-{[(2Z)-2-(methoxyimino)-2-phenylethyl]oxy}benzyl)oxy]phenyl}propanoic acid]",< 0.01
7,"CO/N=C(\COc1ccc(COc2ccc(C(C#N)CC(=O)O)cc2)cc1)c1ccccc1 (single isomer, unassigned; (-)) [Compound 82, (−)-Sodium 3-cyano-3-{4-[(4-{[(2E,2Z)-2-(methoxyimino)-2-phenylethyl]oxy}benzyl)oxy]phenyl}propanoate]",< 0.01
8,"CO/N=C(/c1ccccc1)c1cccc(COc2ccc(CCC(=O)O)cc2)c1 [Compound 1, 3-[4-({3-[(E,Z)-(methoxyimino)(phenyl)methyl]benzyl}oxy)phenyl]propanoic acid]",0.01 to 0.1
9,"CO/N=C(/c1ccccc1)c1cccc(CNc2ccc(CCC(=O)O)cc2)c1 [Compound 2, 3-[4-({3-[(E,Z)-(Methoxyimino)(phenyl)methyl]benzyl}amino)phenyl]propanoic acid]",0.01 to 0.1
10,"CO/N=C(/c1ccccc1)c1ccc(CNc2ccc(CCC(=O)O)cc2)cc1 [Compound 3, 3-[4-({4-[(E,Z)-(Methoxyimino)(phenyl)methyl]benzyl}amino)phenyl]propanoic acid]",> 0.1
11,"CO/N=C(\COc1ccc(CNc2ccc(CCC(=O)O)cc2)cc1)c1ccccc1 [Compound 4, 3-{4-[(4-{[(2Z)-2-(Methoxyimino)-2-phenylethyl]oxy}benzyl)amino]phenyl}propanoic acid]",0.01 to 0.1
12,CO/N=C(\COc1cccc(CNc2ccc(CCC(=O)O)cc2)c1)c1ccccc1 [Compound 5],> 0.1
13,"CO/N=C(\COc1ccc(CNc2ccc(CCC(=O)O)cc2)cc1)c1ccccc1C [Compound 6, 3-{4-[(4-{[(2Z)-2-(Methoxyimino)-2-(2-methylphenyl)ethyl]oxy}benzyl)amino]phenyl}propanoic acid]",0.01 to 0.1
14,"CO/N=C(\COc1ccc(COc2ccc(CCC(=O)O)cc2)cc1)c1ccccc1 [Compound 7, 3-{4-[(4-{[(2Z)-2-(Methoxyimino)-2-phenylethyl]oxy}benzyl)oxy]phenyl}propanoic acid]",< 0.01
15,"CO/N=C(\COc1cccc(COc2ccc(CC(C#N)C(=O)O)cc2)c1)c1ccccc1 (stereo not drawn) [Compound 8, 2-Cyano-3-{4-[(3-{[(2E,2Z)-2-(methoxyimino)-2-phenylethyl]oxy}benzyl)oxy]phenyl}propanoic acid]",> 0.1
16,"O=C(O)CCc1ccc(NCc2cccc(/C(=N\OCC(F)(F)F)c3ccccc3)c2)cc1 [Compound 9, 3-{4-[(3-{(E,Z)-Phenyl[(2,2,2-trifluoroethoxy)imino]methyl}benzyl)amino]phenyl}propanoic acid]",> 0.1
